Assay results: EPA's ToxRefDB 2

Key:
rat [1] = conditions: Chronic toxicity; sprague dawley; Oral; Gavage/Intubation; dose end: 6 month; group: systemic; systemic / clinical chemistry / chloride / chloride + systemic / clinical chemistry / sodium / sodium + systemic / hematology / hematocrit (…
dog [2] = conditions: Sub-acute repeat dose toxicity, beagle, Oral, Capsule, dose end: 1 month, group: systemic
rabbit = conditions: Prenatal developmental toxicity study, new zealand white, Oral, Gavage/Intubation, dose end: 19 GD
dog [3] = conditions: Subchronic oral toxicity in nonrodent, beagle, Capsule, dose end: 3 month, group: systemic, systemic / clinical chemistry / alanine aminotransferase (alt/sgpt) / alanine aminotransferase (alt/sgpt) + systemic / clinical chemistry / …
rat [4] = conditions: Sub-acute repeat dose toxicity; sprague dawley; Oral; Gavage/Intubation; dose end: 1 month; group: systemic; systemic / hematology / blood clotting / blood clotting - prothrombin time + systemic / hematology / platelet / platelet + systemic / organ …
mouse [5] = conditions: Sub-acute repeat dose toxicity, cd1, Oral, Gavage/Intubation, dose end: 1 month, group: systemic
rat [6] = conditions: Prenatal developmental toxicity study, sprague dawley, Oral, Gavage/Intubation, dose end: 17 GD, group: maternal
rat [7] = conditions: Fertility (Segment I), sprague dawley, Oral, Gavage/Intubation, dose end: 7 GD
rat [8] = conditions: Prenatal developmental toxicity study, sprague dawley, Oral, Gavage/Intubation, dose end: 17 GD
mouse [9] = conditions: Subchronic oral toxicity in rodents, cd1, Gavage/Intubation, dose end: 3 month, group: systemic
rat [10] = conditions: Fertility (Segment I), sprague dawley, Oral, Gavage/Intubation, dose end: 7 GD, group: parental
rat [11] = conditions: Sub-acute repeat dose toxicity, sprague dawley, Oral, Gavage/Intubation, dose end: 1 month
mouse [12] = conditions: Subchronic oral toxicity in rodents, b6c3f1, Gavage/Intubation, dose end: 13 week, group: systemic
rat [13] = conditions: Combined chronic toxicity/carcinogenicity, fischer, Oral, Gavage/Intubation, dose end: 103 week, group: systemic
rat [14] = conditions: Subchronic oral toxicity in rodents, fischer, Gavage/Intubation, dose end: 13 week, group: systemic
[15] = systemic / clinical chemistry / alkaline phosphatase (alp/alk) / alkaline phosphatase (alp/alk) + systemic / clinical chemistry / …
[16] = systemic / clinical chemistry / lipids / phospholipids + systemic / pathology gross / liver / [other] + systemic / clinical chemistry / …
[17] = group: developmental, systemic / in life observation / body weight / fetal weight
[18] = group: maternal, reproductive / reproductive performance / postimplantation loss / postimplantation loss + reproductive / reproductive performance / …
[19] = group: maternal, systemic / in life observation / clinical signs / defecation
[20] = systemic / in life observation / body weight / body weight gain + systemic / in life observation / clinical signs / drooping eyelids (ptosis…
[21] = systemic / in life observation / body weight / body weight gain + systemic / in life observation / clinical signs / piloerection + systemic…
[22] = systemic / in life observation / body weight / body weight gain + systemic / in life observation / food consumption / food consumption
[23] = systemic / in life observation / body weight / body weight gain + systemic / in life observation / food consumption / food consumption + …
[24] = group: maternal, reproductive / reproductive performance / implantations / implantations + reproductive / reproductive performance / preimplantation loss / …
[25] = group: parental, systemic / in life observation / body weight / body weight gain
[26] = group: parental, systemic / in life observation / body weight / body weight gain + systemic / in life observation / clinical signs / body surface staining + …
[27] = group: maternal, reproductive / reproductive performance / preimplantation loss / preimplantation loss + systemic / in life observation / body weight / body …
[28] = group: maternal, systemic / in life observation / body weight / body weight gain + systemic / in life observation / clinical signs / piloerection + systemic…
[29] = systemic / clinical chemistry / cholesterol / cholesterol + systemic / clinical chemistry / bilirubin / total bilirubin + systemic / organ …
[30] = systemic / organ weight / liver / absolute + systemic / organ weight / liver / relative to body weight + systemic / organ weight / spleen / …
[31] = systemic / in life observation / clinical signs / body surface staining
[32] = group: maternal, reproductive / reproductive performance / estrous cycle / abnormal
[33] = group: systemic, systemic / clinical chemistry / cholesterol / cholesterol + systemic / clinical chemistry / globulins / globulins + systemic / clinical …
[34] = group: systemic, systemic / urinalysis / specific gravity/osmolality / specific gravity/osmolality + systemic / urinalysis / volume / volume
[35] = systemic / in life observation / body weight / body weight
[36] = systemic / in life observation / body weight / body weight + systemic / in life observation / clinical signs / altered breathing rate + …
[37] = systemic / pathology microscopic / liver / cytologic alterations + systemic / pathology microscopic / liver / hyperplasia
[38] = systemic / pathology microscopic / liver / cytologic alterations + systemic / pathology microscopic / liver / hyperplasia + systemic / …
[39] = systemic / in life observation / body weight / body weight + systemic / in life observation / clinical signs / lethargy + systemic / in life…

Question: `COc1ccc(S(=O)(=O)N2C(=O)[C@@](c3ccccc3OC)(N3C[C@H](O)C[C@H]3C(=O)N(C)C)c3cc(Cl)ccc32)c(OC)c1` [Nelivaptan] was tested. Which LEL (rat [1]) did it give?
Answer: 25 mg/kg/day

Question: What about the LOAEL (rat [1]) of the same compound?
Answer: 25 mg/kg/day

Question: What about the NEL (rat [1]) of the same compound?
Answer: < 25 mg/kg/day

Question: What about the NOAEL (rat [1]) of the same compound?
Answer: < 25 mg/kg/day

Question: And the LOAEL (dog [2]; [15])?
Answer: 200 mg/kg/day

Question: And the NOAEL (dog [2]; [15])?
Answer: 50 mg/kg/day

Question: What about the LEL (dog [2]; [16]) of the same compound?
Answer: 50 mg/kg/day

Question: What about the NEL (dog [2]; [16]) of the same compound?
Answer: < 50 mg/kg/day

Question: What about the LEL (rabbit; [17]) of the same compound?
Answer: 2000 mg/kg/day

Question: What about the LOAEL (rabbit; [17]) of the same compound?
Answer: > 2000 mg/kg/day

Question: And the NEL (rabbit; [17])?
Answer: 1000 mg/kg/day

Question: What about the NOAEL (rabbit; [17]) of the same compound?
Answer: ≥ 2000 mg/kg/day

Question: And the LOAEL (rabbit; [18])?
Answer: 1000 mg/kg/day

Question: And the NOAEL (rabbit; [18])?
Answer: 500 mg/kg/day

Question: What about the LEL (rabbit; [19]) of the same compound?
Answer: 250 mg/kg/day

Question: And the NEL (rabbit; [19])?
Answer: < 250 mg/kg/day

Question: What about the LEL (dog [3]) of the same compound?
Answer: 100 mg/kg/day

Question: And the LOAEL (dog [3])?
Answer: 100 mg/kg/day

Question: What about the NEL (dog [3]) of the same compound?
Answer: 25 mg/kg/day

Question: What about the NOAEL (dog [3]) of the same compound?
Answer: 25 mg/kg/day

Question: What about the LEL (rat [4]) of the same compound?
Answer: 25 mg/kg/day

Question: And the LOAEL (rat [4])?
Answer: > 200 mg/kg/day

Question: What about the NEL (rat [4]) of the same compound?
Answer: < 25 mg/kg/day

Question: And the NOAEL (rat [4])?
Answer: ≥ 200 mg/kg/day

Question: And the LOAEL (mouse [5]; [20])?
Answer: > 4000 mg/kg/day

Question: What about the NOAEL (mouse [5]; [20]) of the same compound?
Answer: ≥ 4000 mg/kg/day

Question: And the LEL (mouse [5]; [21])?
Answer: 1000 mg/kg/day

Question: And the NEL (mouse [5]; [21])?
Answer: < 1000 mg/kg/day

Question: And the LEL (rat [6]; [22])?
Answer: 150 mg/kg/day

Question: What about the NEL (rat [6]; [22]) of the same compound?
Answer: < 150 mg/kg/day

Question: And the LOAEL (rat [6]; [23])?
Answer: > 750 mg/kg/day

Question: What about the NOAEL (rat [6]; [23]) of the same compound?
Answer: ≥ 750 mg/kg/day

Question: What about the LEL (rat [7]; [24]) of the same compound?
Answer: 750 mg/kg/day

Question: And the LOAEL (rat [7]; [24])?
Answer: 750 mg/kg/day

Question: What about the NEL (rat [7]; [24]) of the same compound?
Answer: 600 mg/kg/day

Question: What about the NOAEL (rat [7]; [24]) of the same compound?
Answer: 600 mg/kg/day

Question: What about the LEL (rat [7]; [25]) of the same compound?
Answer: 100 mg/kg/day

Question: What about the NEL (rat [7]; [25]) of the same compound?
Answer: < 100 mg/kg/day

Question: What about the LOAEL (rat [7]; [26]) of the same compound?
Answer: 750 mg/kg/day

Question: And the NOAEL (rat [7]; [26])?
Answer: 600 mg/kg/day

Question: And the LEL (rat [8]; [17])?
Answer: 750 mg/kg/day

Question: What about the LOAEL (rat [8]; [17]) of the same compound?
Answer: 750 mg/kg/day

Question: What about the NEL (rat [8]; [17]) of the same compound?
Answer: 300 mg/kg/day

Question: And the NOAEL (rat [8]; [17])?
Answer: 300 mg/kg/day

Question: What about the LOAEL (rat [8]; [27]) of the same compound?
Answer: > 1500 mg/kg/day

Question: What about the NOAEL (rat [8]; [27]) of the same compound?
Answer: ≥ 1500 mg/kg/day

Question: And the LEL (rat [8]; [28])?
Answer: 300 mg/kg/day

Question: What about the NEL (rat [8]; [28]) of the same compound?
Answer: < 300 mg/kg/day

Question: And the LOAEL (mouse [9]; [29])?
Answer: 1000 mg/kg/day

Question: What about the NOAEL (mouse [9]; [29]) of the same compound?
Answer: 500 mg/kg/day

Question: What about the LEL (mouse [9]; [30]) of the same compound?
Answer: 500 mg/kg/day

Question: What about the NEL (mouse [9]; [30]) of the same compound?
Answer: < 500 mg/kg/day

Question: What about the LOAEL (rat [10]; [22]) of the same compound?
Answer: 750 mg/kg/day

Question: And the NOAEL (rat [10]; [23])?
Answer: 450 mg/kg/day

Question: And the LEL (rat [10]; [31])?
Answer: 150 mg/kg/day

Question: What about the NEL (rat [10]; [31]) of the same compound?
Answer: < 150 mg/kg/day

Question: What about the LEL (rat [11]; [32]) of the same compound?
Answer: 800 mg/kg/day

Question: And the LOAEL (rat [11]; [32])?
Answer: > 800 mg/kg/day

Question: And the NEL (rat [11]; [32])?
Answer: 200 mg/kg/day

Question: What about the NOAEL (rat [11]; [32]) of the same compound?
Answer: ≥ 800 mg/kg/day

Question: What about the LOAEL (rat [11]; [33]) of the same compound?
Answer: 200 mg/kg/day

Question: What about the NOAEL (rat [11]; [33]) of the same compound?
Answer: 50 mg/kg/day

Question: And the LEL (rat [11]; [34])?
Answer: 50 mg/kg/day

Question: What about the NEL (rat [11]; [34]) of the same compound?
Answer: < 50 mg/kg/day

Question: With `COC(N)=O` [Methyl carbamate] as the compound, how does the LEL (mouse [12]; [35]) read?
Answer: 125 mg/kg/day

Question: And the NEL (mouse [12]; [35])?
Answer: < 125 mg/kg/day

Question: And the LOAEL (mouse [12]; [36])?
Answer: > 1500 mg/kg/day

Question: What about the NOAEL (mouse [12]; [36]) of the same compound?
Answer: ≥ 1500 mg/kg/day

Question: What about the LOAEL (rat [13]; [37]) of the same compound?
Answer: 100 mg/kg/day

Question: What about the NOAEL (rat [13]; [37]) of the same compound?
Answer: < 100 mg/kg/day

Question: What about the LEL (rat [13]; [38]) of the same compound?
Answer: 100 mg/kg/day

Question: What about the NEL (rat [13]; [38]) of the same compound?
Answer: < 100 mg/kg/day

Question: What about the LOAEL (rat [14]; [39]) of the same compound?
Answer: > 800 mg/kg/day

Question: And the NEL (rat [14]; [39])?
Answer: 200 mg/kg/day

Question: What about the NOAEL (rat [14]; [39]) of the same compound?
Answer: ≥ 800 mg/kg/day

Question: What about the LEL (rat [14]; systemic / in life observation / body weight / body weight + systemic / in life observation / clinical signs / lethargy + systemic / organ …) of the same compound?
Answer: 400 mg/kg/day
